This passage reports EC50 results from patent US8003796B2, “Pyridone GPR119 G protein-coupled receptor agonists” (Bristol-Myers Squibb Company, priority 2007, dated 2011).

As usually defined, the pEC50 is −log10 of the EC50, conventionally taken in molar units.

This assay has as its target T1, human GPR119 (Homo sapiens, UniProt Q8TDV5).
T1 construct: expressed in transfected cells; host or cells: Flp-In-T-REx 293 (tetracycline-inducible)
T1 sequence (Q8TDV5 1-335): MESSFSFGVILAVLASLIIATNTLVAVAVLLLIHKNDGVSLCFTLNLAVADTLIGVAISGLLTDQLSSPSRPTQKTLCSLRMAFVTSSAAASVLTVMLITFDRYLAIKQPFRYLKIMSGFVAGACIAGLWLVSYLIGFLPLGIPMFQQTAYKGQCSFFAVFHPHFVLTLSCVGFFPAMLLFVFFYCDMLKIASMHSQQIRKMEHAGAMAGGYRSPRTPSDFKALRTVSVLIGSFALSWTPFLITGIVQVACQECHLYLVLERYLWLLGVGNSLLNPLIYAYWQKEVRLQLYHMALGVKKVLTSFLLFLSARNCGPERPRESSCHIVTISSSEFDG
Put plainly: Human Tet-inducible cAMP assay. Particulars: Flp-In-T-REx 293 tetracycline inducible cells expressing GPR119; cAMP by Hit Hunter cAMP kit; 1 hour at 37° C.; read-out: hGPR119 EC50. It is filed as cell-based. The protocol: The in vitro modulation of recombinant human GPR119 was determined as follows.
Human Tet-Inducible cAMP Assay
Cell lines expressing GPR119 are generated using the Flp-In-T-REx 293 tetracycline inducible gene expression system are cultured in culture medium comprising the following components: DMEM#11965, 10% FBS, 2 mM L-glutamine, 200 ug/ml Hygromycin B, and 15 ug/ml blasticidin.
For cAMP assays, cells are plated on 96 well plates (e.g., BD Falcon: REF 353948, black side, clear bottom, TC surface) at a density of about 4.5×10^4 cells per well in growth medium containing 1.0 ug/ml tetracycline (1.0 mg/ml stock). The cells are then incubated for 48 hours at 37° C.
Following the incubation, the growth medium is removed from the wells and the wells rinsed (once) with the assay buffer included in the Hit Hunter cAMP kit (100 μl/well). Following the wash, 20 μl of assay buffer is added to each well, followed by addition of 10 μl of a 3× concentration compound working solution. The solution is then mixed. The final concentration range of compound is from about 10^−5M to about 10^−11M. The reagents are then incubated at 37° C. at 5% CO2 for 1 hour.
The manufacturer's protocol may be followed for cAMP determination. The Hit Hunter cAMP kit protocol is outlined for the HIT-T15 cAMP assays described above.
Compounds of the present invention were tested in the Human Tet-inducible cAMP assay described immediately above and the results shown in Table 1 below were obtained.
Background: cAMP levels reflect the balance of adenylyl cyclase and phosphodiesterase activity.

pEC50: −log10 of the molar value. Where a name gives a salt, the structure may show the parent alone.

With `COc1cccc(-n2ccc(OC3CCN(C(=O)OC(C)C)CC3)cc2=O)c1` [Example 12, isopropyl 4-(1-(3-methoxyphenyl)-2-oxo-1,2-dihydropyridin-4-yloxy)piperidine-1-carboxylate], the pEC50 was 5.46.
To `CC(C)OC(=O)N1[C@@H]2CC[C@@H]1CC(Oc1ccn(-c3ccc(S(C)(=O)=O)cc3)c(=O)c1)C2` (stereo partly drawn) [Example 27, (3-endo)-isopropyl 3-(1-(4-(methylsulfonyl)phenyl)-2-oxo-1,2-dihydropyridin-4-yloxy)-8-azabicyclo[3.2.1]octane-8-carboxylate] belongs 5.46.
To `CS(=O)(=O)c1ccc(-n2ccc(OC3CCN(c4nc5ccccc5o4)CC3)cc2=O)cc1` [Example 51, 4-(1-(benzo[d]oxazol-2-yl)piperidin-4-yloxy)-1-(4-(methylsulfonyl)phenyl)pyridin-2(1H)-one] belongs 6.50.
As for `CS(=O)(=O)c1ccc(-n2ccc(OC3CCN(C(=O)CCc4ccccc4)CC3)cc2=O)cc1` [Example 74, 1-(4-(methylsulfonyl)phenyl)-4-(1-(3-phenylpropanoyl)piperidin-4-yloxy)pyridin-2(1H)-one], the figure is 6.56; as for `CS(=O)(=O)c1ccc(-n2ccc(OC3CCN(C(=O)c4cnc5ccccc5n4)CC3)cc2=O)cc1` [Example 78, 1-(4-(methylsulfonyl)phenyl)-4-(1-(quinoxaline-2-carbonyl)piperidin-4-yloxy)pyridin-2(1H)-one], 6.52.
Turning to `CS(=O)(=O)c1ccc(-n2ccc(OC3CCN(S(=O)(=O)CC(F)(F)F)CC3)cc2=O)cc1` [Example 82, 1-(4-(methylsulfonyl)phenyl)-4-(1-(2,2,2-trifluoroethylsulfonyl)piperidin-4-yloxy)pyridin-2(1H)-one], the pEC50 was 5.40.
As for `CS(=O)(=O)c1ccc(-n2ccc(OC3CCN(S(C)(=O)=O)CC3)cc2=O)cc1` [Example 83, 1-(4-(methylsulfonyl)phenyl)-4-(1-(methylsulfonyl)piperidin-4-yloxy)pyridin-2(1H)-one], the figure is 5.36; as for `CS(=O)(=O)c1ccc(-n2ccc(OC3CCN(S(=O)(=O)C4CC4)CC3)cc2=O)cc1` [Example 84, 4-(1-(cyclopropylsulfonyl)piperidin-4-yloxy)-1-(4-(methylsulfonyl)phenyl)pyridin-2(1H)-one], 5.48; as for `CS(=O)(=O)c1ccc(-n2ccc(OC3CCN(S(=O)(=O)c4ccccn4)CC3)cc2=O)cc1` [Example 86, 1-(4-(methylsulfonyl)phenyl)-4-(1-(pyridin-2-ylsulfonyl)piperidin-4-yloxy)pyridin-2(1H)-one], 5.45.
As for `CCCOC(=O)N1CCC(Oc2ccn(-c3ccc(S(C)(=O)=O)cc3)c(=O)c2)CC1` [Example 91, propyl 4-(1-(4-(methylsulfonyl)phenyl)-2-oxo-1,2-dihydropyridin-4-yloxy)piperidine-1-carboxylate], the figure is 6.52; as for `Cc1cnc(N2CCC(Oc3ccn(-c4ccc(S(C)(=O)=O)cc4)c(=O)c3)CC2)nc1` [Example 108, 4-(1-(5-methylpyrimidin-2-yl)piperidin-4-yloxy)-1-(4-(methylsulfonyl)phenyl)pyridin-2(1H)-one], 6.58; as for `CCOc1ccc(OC(=O)N2CCC(Oc3ccn(-c4ccc(S(C)(=O)=O)cc4)c(=O)c3)CC2)cc1` [Example 125, 4-ethoxyphenyl 4-(1-(4-(methylsulfonyl)phenyl)-2-oxo-1,2-dihydropyridin-4-yloxy)piperidine-1-carboxylate], 6.53.
As for `CCc1cnc(N2CCC(Oc3ccn(-c4cccnc4)c(=O)c3)CC2)nc1` [Example 133, 4-(1-(5-ethylpyrimidin-2-yl)piperidin-4-yloxy)-1-(pyridin-3-yl)pyridin-2(1H)-one], the figure is 6.60.
Regarding `Cc1cc(Br)ccc1OC(=O)N1CCC(Oc2ccn(-c3ccc(S(C)(=O)=O)cc3)c(=O)c2)CC1` [Example 143, 4-bromo-2-methylphenyl 4-(1-(4-(methylsulfonyl)phenyl)-2-oxo-1,2-dihydropyridin-4-yloxy)piperidine-1-carboxylate], the pEC50 was 6.56.
Take `CCCc1ccc(OC(=O)N2CCC(Oc3ccn(-c4ccc(S(C)(=O)=O)cc4)c(=O)c3)CC2)cn1` [Example 153, 6-propylpyridin-3-yl 4-(1-(4-(methylsulfonyl)phenyl)-2-oxo-1,2-dihydropyridin-4-yloxy)piperidine-1-carboxylate, TFA salt]: the pEC50 is 6.56.
To `Cc1cc(OC2CCN(c3ncc(C4CC4)cn3)CC2)cc(=O)n1-c1ccc(S(C)(=O)=O)cc1` [Example 162, 4-(1-(5-cyclopropylpyrimidin-2-yl)piperidin-4-yloxy)-6-methyl-1-(4-(methylsulfonyl)phenyl)pyridin-2(1H)-one] belongs 5.30.
To `CCCc1cnc(N2CCC(Oc3cc(C)n(-c4ccc(S(C)(=O)=O)cc4)c(=O)c3)CC2)nc1` [Example 165, 6-methyl-1-(4-(methylsulfonyl)phenyl)-4-(1-(5-propylpyrimidin-2-yl)piperidin-4-yloxy)pyridin-2(1H)-one] belongs 5.30.
As for `CCCc1cnc(N2CCC(Oc3ccn(-c4ccc(S(C)(=O)=O)c(F)c4)c(=O)c3)CC2)nc1` [Example 175, 1-(3-fluoro-4-(methylsulfonyl)phenyl)-4-(1-(5-propylpyrimidin-2-yl)piperidin-4-yloxy)pyridin-2(1H)-one], the figure is 8.10; as for `CCCc1cnc(N2CCC(Oc3ccn(-c4ccc(C#N)cc4F)c(=O)c3)CC2)nc1` [Example 177, 3-fluoro-4-(2-oxo-4-(1-(5-propylpyrimidin-2-yl)piperidin-4-yloxy)pyridin-1(2H)-yl)benzonitrile, TFA salt], 8.10; as for `CCCc1cnc(N2CCC(Oc3ccn(-c4ccc(S(C)(=O)=O)cc4C)c(=O)c3)CC2)nc1` [Example 178, 1-(2-methyl-4-(methylsulfonyl)phenyl)-4-(1-(5-propylpyrimidin-2-yl)piperidin-4-yloxy)pyridin-2(1H)-one], 6.58.
For `CCCc1cnc(N2CCC(Oc3ccn(-c4ccc(C(N)=O)cc4F)c(=O)c3)CC2)nc1` [Example 179, 3-fluoro-4-(2-oxo-4-(1-(5-propylpyrimidin-2-yl)piperidin-4-yloxy)pyridin-1(2H)-yl)benzamide, TFA salt], the pEC50 is 6.56.
`CC(C)OC(=O)N1CCC(Oc2ccn(-c3ccc(S(C)(=O)=O)nc3)c(=O)c2)CC1` [Example 189, isopropyl 4-(1-(6-(methylsulfonyl)pyridin-3-yl)-2-oxo-1,2-dihydropyridin-4-yloxy)piperidine-1-carboxylate]: the pEC50 was 5.15.
On to `CC(C)OC(=O)N1CCC(Oc2ccn(-c3cncnc3)c(=O)c2)CC1` [Example 191, isopropyl 4-(2-oxo-1-(pyrimidin-5-yl)-1,2-dihydropyridin-4-yloxy)piperidine-1-carboxylate], for which the pEC50 is 5.29.
Regarding `CCCc1cnc(N2CCC(Oc3ccn(-c4cncnc4)c(=O)c3)CC2)nc1` [Example 192, 4-(1-(5-propylpyrimidin-2-yl)piperidin-4-yloxy)-1-(pyrimidin-5-yl)pyridin-2(1H)-one], the pEC50 was 6.62.
As for `CCCc1cnc(N2CCC(Oc3cc(=O)n(-c4ccc(S(C)(=O)=O)cc4)cc3Cl)CC2)nc1` [Example 194, 5-chloro-1-(4-(methylsulfonyl)phenyl)-4-(1-(5-propylpyrimidin-2-yl)piperidin-4-yloxy)pyridin-2(1H)-one, TFA salt], the negative-log EC50 (pEC50) was 8.30.
`CCCc1cnc(N2CCC(Oc3ccn(-c4ccc(C#N)c(F)c4)c(=O)c3)CC2)nc1` [Example 199, 2-fluoro-4-(2-oxo-4-(1-(5-propylpyrimidin-2-yl)piperidin-4-yloxy)pyridin-1(2H)-yl)benzonitrile]: the pEC50 was 8.15.
As for `CCCc1cnc(N2CCC(Oc3ccn(-c4ccc(S(C)(=O)=O)nc4C)c(=O)c3)CC2)nc1` [Example 206, 1-(2-methyl-6-(methylsulfonyl)pyridin-3-yl)-4-(1-(5-propylpyrimidin-2-yl)piperidin-4-yloxy)pyridin-2(1H)-one, TFA salt], the figure is 6.53; as for `Cc1nc(S(C)(=O)=O)ccc1-n1ccc(OC2CCN(C(=O)OC(C)C)CC2)cc1=O` [Example 207, isopropyl 4-(1-(2-methyl-6-(methylsulfonyl)pyridin-3-yl)-2-oxo-1,2-dihydropyridin-4-yloxy)piperidine-1-carboxylate, TFA salt], 5.15.
